Type in all cases: biochemical
The target in test [1] is T1, human Tie2 (Homo sapiens, UniProt Q02763).
T1 construct: amino acids of the intracellular domain 776-1124; made in house
Put plainly: Tie2 assay of PLC phosphorylation (FlashPlate). Conditions: read-out: IC 50 TIE2. The procedure: The coding sequence of human Tie2, corresponding to the amino acids of the intracellular domain 776-1124, was generated by PCR, using the cDNA isolated from human placenta as a model. This sequence was introduced into a baculovirus expression vector pFastBacGT in the form of a GST fusion protein.
The inhibitory effect of the molecules is determined in an assay of PLC phosphorylation by Tie2 in the presence of GST-Tie2 purified to approximately 80% homogeneity. The substrate is composed of the SH2-SH3 fragments of PLC expressed in the form of a GST fusion protein.
The kinase activity of Tie2 is measured in a 20 mM MOPS buffer, pH 7.2, containing 10 mM MgCl2, 10 mM MnCl2, 1 mM DTT, 10 mM of glycerol-phosphate. In a 96-well FlashPlate plate, kept on ice, a reaction mixture is deposited which is composed of 70 μl of kinase buffer containing 100 ng of GST-Tie2 enzyme per well. Subsequently 10 μl of the test molecule diluted to a concentration of 10% maximum in DMvSO are added. For a given concentration, each measurement is carried out in quadruplicate. The reaction is initiated by adding 20 μl of solution containing 2 μg of GST-PLC, 2 μM of cold ATP and 1 μCi of ^33P[ATP]. After 1 hour of incubation at 37° C., the reaction is terminated by adding 1 volume (100 μl) of 200 mM EDTA. Following removal of the incubation buffer, the wells are washed three times with 300 μl of PBS. The radioactivity is measured on a Wallac MicroBeta 1450.
The inhibition of Tie2 activity is calculated and expressed as a percentage inhibition relative to the control activity determined in the absence of compound.

The target in test [2] is T2, Aurora2 (Homo sapiens, UniProt O14965).
T2 construct: Aurora 2: whole recombinant protein comprising an N-terminal histidine tail; His tag (histidine tail) (N); made in house; host or cells: E. coli
T2 sequence (O14965 1-403): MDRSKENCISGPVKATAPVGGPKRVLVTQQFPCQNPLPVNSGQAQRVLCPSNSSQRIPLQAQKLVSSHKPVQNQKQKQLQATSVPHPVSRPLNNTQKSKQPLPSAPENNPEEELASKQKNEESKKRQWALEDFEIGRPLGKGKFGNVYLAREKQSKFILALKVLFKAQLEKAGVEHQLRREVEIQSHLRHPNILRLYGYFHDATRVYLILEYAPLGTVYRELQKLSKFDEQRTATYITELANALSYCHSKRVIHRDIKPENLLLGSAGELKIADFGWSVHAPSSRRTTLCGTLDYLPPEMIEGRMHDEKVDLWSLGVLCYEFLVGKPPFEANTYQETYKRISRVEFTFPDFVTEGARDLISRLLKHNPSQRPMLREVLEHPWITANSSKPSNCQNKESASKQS
Description: Aurora2 enzyme assay, NuMA substrate phosphorylation (Flashplate). Conditions: read-out: IC 50 Aurora2. The procedure: The inhibitory effect of compounds with respect to the kinases Aurora1 and Aurora2 is determined by an enzyme assay employing radioactivity detection.
The kinase activity of Aurora 1 and Aurora 2 is evaluated by the phosphorylation of the substrate Numa-histidine in the presence of radiolabeled ATP ([^33P]ATP), using 96-well Flashplate plates in which nickel chelate is fixed to the surface of the microplate. The amount of ^33P phosphate incorporated in the NuMA substrate is proportional to the activity of the enzyme Aurora1 or Aurora2.
The proteins are produced in the protein production laboratory of the SanofiAventis group.
Aurora 2: whole recombinant protein comprising an N-terminal histidine tail, expressed in E. coli and purified to more than 82%.
NuMA (nuclear protein that associates with the mitotic apparatus) fragment of 424 amino acids, expressed in E. coli, whose N-terminal end has been labeled with histidine and used as a substrate for the two Aurora enzymes.
The microplates used are 96-well Flash-Plate plates with nickel chelate (Perkin Elmer, model SMP107).
The products for evaluation are incubated in a reaction volume of 100 μL per well in the presence of 10 nM of Aurora 1 or Aurora 2, 500 nM of NuMA substrate in a buffer composed of 50 mM of Tris/HCl (pH 7.5), 50 mM NaCl, 5 mM MgCl2 (Aurora-B) or 10 mM MgCl2 (Aurora-A) and 1 mM of DTT, at 37° C.
In each well, 80 μL of the enzyme/substrate incubation buffer are distributed, followed by 10 μL of the product to be evaluated, in variable concentrations. The reaction is initiated by adding 1 μM of final ATP containing 0.2 μCi of [^33P]ATP (10 μL). After 30 minutes of incubation, the reaction is terminated by simply removing the reaction buffer and each well is washed twice with 300 μl of the Tris/HCl buffer. The radioactivity is then measured in each well by means of a scintillation apparatus, Packard, Top count model.
The control enzyme activity of Aurora is expressed by the number of counts per minute obtained within 30 minutes, after deduction of the background noise (reaction mixture not containing the enzyme). The evaluation of the various test products is expressed in percentage inhibition of the Aurora activity relative to the control.

Test [3] deals with T3, human KDR enzyme (Homo sapiens, UniProt P35968).
T3 construct: The cytoplasmic domain of the human KDR enzyme was cloned in the form of a GST fusion; GST; made in house; host or cells: SF21 insect cells (baculovirus, pFastBac)
T3 sequence (P35968 786-1356 limits assumed): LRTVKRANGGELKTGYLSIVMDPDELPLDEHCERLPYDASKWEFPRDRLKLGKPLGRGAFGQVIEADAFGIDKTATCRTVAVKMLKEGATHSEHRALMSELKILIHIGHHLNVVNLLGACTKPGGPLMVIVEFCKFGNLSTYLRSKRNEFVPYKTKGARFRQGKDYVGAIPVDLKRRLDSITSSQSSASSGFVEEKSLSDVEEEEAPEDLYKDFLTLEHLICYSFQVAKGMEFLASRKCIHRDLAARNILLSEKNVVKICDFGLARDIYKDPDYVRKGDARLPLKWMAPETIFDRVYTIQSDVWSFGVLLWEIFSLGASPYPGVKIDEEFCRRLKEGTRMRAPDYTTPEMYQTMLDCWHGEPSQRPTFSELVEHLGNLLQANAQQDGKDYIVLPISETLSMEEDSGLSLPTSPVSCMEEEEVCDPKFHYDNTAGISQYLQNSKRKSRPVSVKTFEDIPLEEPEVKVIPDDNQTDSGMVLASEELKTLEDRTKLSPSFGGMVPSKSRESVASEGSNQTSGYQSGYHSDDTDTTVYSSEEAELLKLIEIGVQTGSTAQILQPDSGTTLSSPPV
Description: KDR substrate phosphorylation assay (scintillation, 96-well plate). The procedure: The inhibitory effect of the compounds is determined in an assay of substrate phosphorylation by the KDR enzyme in vitro using a scintillation technique (96-well plate, NEN).
The cytoplasmic domain of the human KDR enzyme was cloned in the form of a GST fusion into the baculovirus expression vector pFastBac. The protein was expressed in SF21 cells and purified to approximately 60% homogeneity.
The KDR kinase activity is measured in 20 mM MOPS, 10 mM MgCl2, 10 mM MnCl2, 1 mM DTT, 2.5 mM EGTA, 10 mM β-glycerophosphate, pH=7.2, in the presence of 10 mM MgCl2, 100 μM Na3VO4, 1 mM NaF. 10 μl of the compound are added to 70 μl of kinase buffer, containing 100 ng of KDR enzyme at 4° C. The reaction is triggered by adding 20 μl of solution containing 2 μg of substrate (SH2-SH3 fragment of PLCγ expressed in the form of a GST fusion protein), 2 μCi γ^33P[ATP] and 2 μM cold ATP. After 1 hour of incubation at 37° C., the reaction is stopped by adding 1 volume (100 μl) of 200 mM EDTA. The incubation buffer is withdrawn and the wells are washed three times with 300 μl of PBS. The radioactivity is measured in each well using a Top Count NXT radioactivity counter (Packard).
The background noise is determined by measuring the radioactivity in four different wells containing the radioactive ATP and the substrate alone.
A control for total activity is measured in four different wells containing all of the reagents (γ^33P-[ATP], KDR and PLCγ substrate), but in the absence of compound.
The inhibition of KDR activity with the compound of the invention is expressed in percentage inhibition of the control activity determined in the absence of compound.
The compound SU5614 (Calbiochem) (1 μM) is included in each plate as an inhibition control.

Counter-ions that a name gives are not always drawn.

T1 sequence (Q02763 776-1124): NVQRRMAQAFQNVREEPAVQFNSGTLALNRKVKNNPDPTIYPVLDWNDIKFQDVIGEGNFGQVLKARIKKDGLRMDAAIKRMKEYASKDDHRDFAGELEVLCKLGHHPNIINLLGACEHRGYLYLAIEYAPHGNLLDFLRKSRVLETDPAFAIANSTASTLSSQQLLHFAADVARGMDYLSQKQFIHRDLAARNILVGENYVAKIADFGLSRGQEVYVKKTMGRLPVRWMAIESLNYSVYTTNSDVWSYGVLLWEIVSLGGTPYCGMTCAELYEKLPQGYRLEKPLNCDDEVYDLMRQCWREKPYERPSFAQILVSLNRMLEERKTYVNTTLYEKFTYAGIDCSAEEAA

As to `Nc1n[nH]c2c(F)c(-c3ccc(NC(=O)Nc4ccccc4)cc3)ccc12` [Example 20, 1-[4-(3-Amino-7-fluoro-1H-indazol-6-yl)phenyl]-3-phenylurea], the IC50 in test [1] was determined as 502 nM; in test [2], 63 nM.

In the case of `O=C(Nc1ccc(-c2ccc3c(NC(=O)c4ccsc4)n[nH]c3c2F)cc1)Nc1ccccc1F` [Example 14, 1-(4-{7-Fluoro-3-[(thiophen-3-yl)carbonylamino]-1H-indazol-6-yl}phenyl)-3-(2-fluorophenyl)urea], the IC50 in test [1] came to 50 nM; in test [2], 23 nM; in test [3], 4220 nM.

As to `Nc1n[nH]c2cc(-c3ccc(NC(=O)Nc4cc(C(F)(F)F)ccc4F)cc3)ccc12` [Example 1, 1-[4-(3-Amino-1H-indazol-6-yl)phenyl]-3-(2-fluoro-5-trifluoromethylphenyl)urea hydrochloride], the IC50 amounted to 1780 nM in test [1], 113 nM in test [2] and 33 nM in test [3].

Consider `O=CNc1n[nH]c2c(F)c(-c3ccc(NC(=O)Nc4cc(C(F)(F)F)ccc4F)cc3)ccc12` [Example 28, 1-(4-(7-Fluoro-3-formylamino-1H-indazol-6-yl}phenyl)-3-(2-fluoro-5-tri-fluoromethylphenyl)urea], for which the IC50 is 176 nM in test [1], 520 nM in test [2] and 164 nM in test [3].

Consider `Nc1n[nH]c2c(F)c(-c3ccc(NC(=O)Nc4ccccc4F)cc3)ccc12` [Example 22, 1-[4-(3-Amino-7-fluoro-1H-indazol-6-yl)phenyl]-3-(2-fluorophenyl)urea], for which the IC50 in test [1] amounted to 5850 nM; in test [2], 143 nM; in test [3] it was 1940 nM.

Regarding `O=C(Nc1ccc(-c2ccc3c(NC(=O)c4ccsc4)n[nH]c3c2)cc1)Nc1cc(C(F)(F)F)ccc1F` [Example 10, 1-(4-[3-[(Thiophen-3-yl)carbonylamino]-1H-indazol-6-yl}phenyl)-3-(2-fluoro-5-trifluoromethylphenyl)urea], the results for the IC50 in test [1], in test [2] and in test [3] were 18 nM, 171 nM and 166 nM, respectively.

With `O=C(Nc1ccc(-c2ccc3c(NC(=O)c4ccsc4)n[nH]c3c2F)cc1F)Nc1cc(C(F)(F)F)ccc1F` [Example 11, 1-(4-{7-Fluoro-3-[(thiophen-3-yl)carbonylamino]-1H-indazol-6-yl}-2-fluorophenyl)-3-(2-fluoro-5-trifluoromethylphenyl)urea], the results for the IC50 in test [1], in test [2] and in test [3] were 11 nM, 185 nM and 37 nM, respectively.

`O=C(Nc1ccc(-c2c(F)c(F)c3c(NC(=O)c4ccsc4)n[nH]c3c2F)cc1)Nc1cc(C(F)(F)F)ccc1F` [Example 9, 1-(4-{4,5,7-Trifluoro-3-[(thiophen-3-yl)carbonylamino]-1H-indazol-6-yl}-phenyl)-3-(2-fluoro-5-trifluoromethylphenyl)urea]: the results for the IC50 in test [1], in test [2] and in test [3] were 46 nM, 1750 nM and 693 nM, respectively.

As to `Cc1ccc(-n2nc(C(C)(C)C)cc2NC(=O)Nc2ccc(-c3ccc4c(NC(=O)c5ccsc5)n[nH]c4c3F)cc2)cc1` [Example 16, 1-(4-{7-Fluoro-3-[(thiophen-3-yl)carbonylamino]-1H-indazol-6-yl}phenyl)-3-(5-tert-butyl-2-p-tolyl-2H-pyrazol-3-yl)urea], the IC50 in test [1] was found to be 3 nM; in test [2], 142 nM; in test [3], 19 nM.

Take `CC(C)(C)c1cc(NC(=O)Nc2ccc(-c3ccc4c(N)n[nH]c4c3F)cc2)no1` [Example 21, 1-[4-(3-Amino-7-fluoro-1H-indazol-6-yl)phenyl]-3-(5-tert-butylisoxazol-3-yl)urea]: the IC50 in test [1] was determined as 174 nM; in test [2] it was 68 nM; in test [3], 85 nM.

Turning to `O=C(Nc1ccc(-c2ccc3c(NC(=O)c4ccsc4)n[nH]c3c2F)cn1)Nc1cc(C(F)(F)F)ccc1F` [Example 24, 1-(5-{7-Fluoro-3-[(thiophen-3-yl)carbonylamino]-1H-indazol-6-yl}pyridin-2-yl)-3-(2-fluoro-5-trifluoromethylphenyl)urea], in test [1], the IC50 was found to be 229 nM.

On to `Nc1n[nH]c2c(F)c(-c3ccc(NC(=O)Nc4cccc(C(F)(F)F)c4)cc3)ccc12` [Example 19, 1-[4-(3-Amino-7-fluoro-1H-indazol-6-yl)phenyl]-3-(3-trifluoromethylphenyl)urea], for which the IC50 came out at 231 nM in test [1], 92 nM in test [2] and 329 nM in test [3].

As for `O=C(Nc1ccccc1)Nc1ccc(-c2ccc3c(NC(=O)c4ccsc4)n[nH]c3c2F)cc1` [Example 12, 1-(4-{7-Fluoro-3-[(thiophen-3-yl)carbonylamino]-1H-indazol-6-yl}phenyl)-3-phenylurea], the IC50 stood at 36 nM in test [1], 14 nM in test [2] and 2770 nM in test [3].

`Nc1ccc(-c2ccc3c(NC(=O)c4ccsc4)n[nH]c3c2F)cc1` [Example 4, 6-(4-Aminophenyl)-7-fluoro-3-[(thiophen-3-yl)carbonylamino]-1H-indazole hydrochloride]: the results for the IC50 in test [1], in test [2] and in test [3] were 799 nM, 465 nM and 164 nM, respectively.

(Values after US7517902B2, “Substituted indazoles, compositions containing the same, and the preparation and use thereof” (Aventis Pharma S.A., priority 2004, dated 2009).)
